Measurements published in patent US10941157B2, “Pesticidal compositions and uses thereof” (Gilead Apollo, LLC, priority 2015, dated 2021).
Converted amounts (≈) assume the structure as drawn. Like-named read-outs stand apart in the source and are kept apart here.

Legend:
Format in all cases: cell-based
Botrtyis cinerea (Bc) = experiment: In vitro pathogen growth inhibition assay, Bc; settings: 48 h
Summary of the method: (§1)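 Value reported is the compound concentration reaching ≥90% growth inhibition, from OD readings at 24 and 48 h after blank subtraction, confirmed visually. Inoculum was spores diluted in 17% V8 medium, except Rs, using 1.5 mm mycelial plugs in ¼ PDB; actual compound concentration corrected via OD600.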

[1] = test system: Collectotrichum graminicola (Cg); experiment: In vitro pathogen growth inhibition assay, Cg; settings: 48 h
Summary of the method: as §1

Diplodia maydis (Dm) = experiment: In vitro pathogen growth inhibition assay, Dm; settings: Stenocarpella maydis, 48 h
Summary of the method: (§2)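 Spores in 17% V8 liquid medium, or 1.5 mm Rs mycelial plugs in ¼ PDB, incubated with compound; final concentration checked by OD600 for precipitation. OD readings at 24 and 48 h, blank-subtracted, plus visual ratings; value is concentration giving ≥90% growth inhibition.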

[2] = test system: Fusarium moniliforme (Fm); experiment: In vitro pathogen growth inhibition assay, Fm; settings: Fusarium verticillioides
Summary of the method: as §1

[3] = test system: Fusarium virguliforme (Fv); experiment: In vitro pathogen growth inhibition assay, Fv
Summary of the method: as §2

[4] = test system: Phytophthora capsici (Pc); experiment: In vitro pathogen growth inhibition assay, Pc; settings: 48 h
Summary of the method: as §2

Rhizoctonia solani (Rs) = experiment: In vitro pathogen growth inhibition assay, Rs (mycelial plugs); settings: Rhizoctonia solani, 48 h
Summary of the method: as §2

Septoria tritici (St) = experiment: In vitro pathogen growth inhibition assay, St; settings: Zymoseptoria tritici, 48 h
Summary of the method: as §1

[5] = ≥90% inhibition, 48 hours vs 2% DMSO control, read-out: Compound Concentration (ppm) sufficient for ≥90% inhibition of growth, Bc
[6] = ≥90% inhibition, 48 hours vs 2% DMSO control, read-out: Compound Concentration (ppm) sufficient for ≥90% inhibition of growth, Cg
[7] = ≥90% inhibition, 48 hours vs 2% DMSO control, read-out: Compound Concentration (ppm) sufficient for ≥90% inhibition of growth, Dm
[8] = ≥90% inhibition, 48 hours vs 2% DMSO control, read-out: Compound Concentration (ppm) sufficient for ≥90% inhibition of growth, Fm
[9] = ≥90% inhibition, 48 hours vs 2% DMSO control, read-out: Compound Concentration (ppm) sufficient for ≥90% inhibition of growth, Fv
[10] = ≥90% inhibition, 48 hours vs 2% DMSO control, read-out: Compound Concentration (ppm) sufficient for ≥90% inhibition of growth, Pc
[11] = ≥90% inhibition, mycelial plugs, 48 hours vs 2% DMSO control, read-out: Compound Concentration (ppm) sufficient for ≥90% inhibition of growth, Rs
[12] = ≥90% inhibition, 48 hours vs 2% DMSO control, read-out: Compound Concentration (ppm) sufficient for ≥90% inhibition of growth, St
[13] = ≥90% growth inhibition, 48 hours, vs 2% DMSO control, read-out: Compound Concentration (ppm) sufficient for ≥90% inhibition of Bc
[14] = ≥90% growth inhibition, 48 hours, vs 2% DMSO control, read-out: Compound Concentration (ppm) sufficient for ≥90% inhibition of Cg
[15] = ≥90% growth inhibition, 48 hours, vs 2% DMSO control, read-out: Compound Concentration (ppm) sufficient for ≥90% inhibition of Dm
[16] = ≥90% growth inhibition, 48 hours, vs 2% DMSO control, read-out: Compound Concentration (ppm) sufficient for ≥90% inhibition of Fm
[17] = ≥90% growth inhibition, 48 hours, vs 2% DMSO control, read-out: Compound Concentration (ppm) sufficient for ≥90% inhibition of Fv
[18] = ≥90% growth inhibition, 48 hours, vs 2% DMSO control, read-out: Compound Concentration (ppm) sufficient for ≥90% inhibition of Pc
[19] = ≥90% growth inhibition, mycelial plugs, 48 hours, vs 2% DMSO control, read-out: Compound Concentration (ppm) sufficient for ≥90% inhibition of Rs
[20] = ≥90% growth inhibition, 48 hours, vs 2% DMSO control, read-out: Compound Concentration (ppm) sufficient for ≥90% inhibition of St

Compound	IC90 (Botrtyis cinerea (Bc); [5]) [µg/mL]	IC90 [1, 6] [µg/mL]	IC90 (Diplodia maydis (Dm); [7]) [µg/mL]	IC90 [2, 8] [µg/mL]	IC90 [3, 9] [µg/mL]	IC90 [4, 10] [µg/mL]	IC90 (Rhizoctonia solani (Rs); [11]) [µg/mL]	IC90 (Septoria tritici (St); [12]) [µg/mL]	IC90 (Botrtyis cinerea (Bc); [13]) [µg/mL]	IC90 [1, 14] [µg/mL]	IC90 (Diplodia maydis (Dm); [15]) [µg/mL]	IC90 [2, 16] [µg/mL]	IC90 [3, 17] [µg/mL]	IC90 [4, 18] [µg/mL]	IC90 (Rhizoctonia solani (Rs); [19]) [µg/mL]	IC90 (Septoria tritici (St); [20]) [µg/mL]	also measured
COc1ccc(F)cc1[C@H](Cn1c(=O)n(C(C)(C)C(=O)N2CCCCC2)c(=O)c2c(C)c(-c3ncco3)sc21)OC(C)C [Compound I-016]	0.4 (≈ 0.653 µM)	2 (≈ 3.26 µM)	0.4 (≈ 0.653 µM)	0.08 (≈ 0.131 µM)	0.4 (≈ 0.653 µM)	> 50	0.4 (≈ 0.653 µM)	> 10									
CCNC(=O)C(C)(C)n1c(=O)c2c(C)c(-n3cccn3)sc2n(C[C@H](OCCC#N)c2ccccc2OC)c1=O [Compound I-232]									10 (≈ 17.7 µM)	10 (≈ 17.7 µM)	50 (≈ 88.5 µM)	2 (≈ 3.54 µM)	0.4 (≈ 0.708 µM)	> 50	2 (≈ 3.54 µM)	> 50	
CCOC(=O)c1ccc(F)cc1[C@H](Cn1c(=O)n(C(C)(C)C(=O)NC(C)C)c(=O)c2c(C)c(-n3nccn3)sc21)OCCC#N [Compound I-335]									10 (≈ 15.6 µM)	50 (≈ 78.2 µM)	50 (≈ 78.2 µM)	2 (≈ 3.13 µM)	2 (≈ 3.13 µM)	> 50	10 (≈ 15.6 µM)	> 50	
COc1ccc(F)cc1[C@H](Cn1c(=O)n(C(C)(C)C(=O)NC(C)C)c(=O)c2c(C)c(-n3nccn3)sc21)OC(=O)CO [Compound I-309]																	IC90 (Botrtyis cinerea (Bc); concentration sufficient to ≥90% inhibition of growth, 48 hours vs 2% DMSO control, read-out: Compound Concentration (ppm) for ≥90% inhibition, Bc): 50 µg/mL (≈ 83 µM); IC90 ([1]; concentration sufficient to ≥90% inhibition of growth, 48 hours vs 2% DMSO control, read-out: Compound Concentration (ppm) for ≥90% inhibition, Cg): > 50 µg/mL; IC90 (Diplodia maydis (Dm); concentration sufficient to ≥90% inhibition of growth, 48 hours vs 2% DMSO control, read-out: Compound Concentration (ppm) for ≥90% inhibition, Dm): > 50 µg/mL; IC90 ([2]; concentration sufficient to ≥90% inhibition of growth, 48 hours vs 2% DMSO control, read-out: Compound Concentration (ppm) for ≥90% inhibition, Fm): 10 µg/mL (≈ 16.6 µM); IC90 ([3]; concentration sufficient to ≥90% inhibition of growth, 48 hours vs 2% DMSO control, read-out: Compound Concentration (ppm) for ≥90% inhibition, Fv): 10 µg/mL (≈ 16.6 µM); IC90 ([4]; concentration sufficient to ≥90% inhibition of growth, 48 hours vs 2% DMSO control, read-out: Compound Concentration (ppm) for ≥90% inhibition, Pc): > 50 µg/mL; IC90 (Rhizoctonia solani (Rs); concentration sufficient to ≥90% inhibition of growth, 48 hours vs 2% DMSO control, read-out: Compound Concentration (ppm) for ≥90% inhibition, Rs): > 50 µg/mL; IC90 (Septoria tritici (St); concentration sufficient to ≥90% inhibition of growth, 48 hours vs 2% DMSO control, read-out: Compound Concentration (ppm) for ≥90% inhibition, St): > 50 µg/mL
COc1ccc(F)cc1[C@H](Cn1c(=O)n(C(C)(C)C(=O)NC(C)C)c(=O)c2c(C)c(-n3cccn3)sc21)OC[C@H](C)O [Compound I-136]	2 (≈ 3.32 µM)	10 (≈ 16.6 µM)	≥ 10	0.4 (≈ 0.665 µM)	2 (≈ 3.32 µM)	> 50	≥ 2	> 50									

The next lines start with results.

IC90 (Botrtyis cinerea (Bc); [5]) [µg/mL]	IC90 [1, 6] [µg/mL]	IC90 (Diplodia maydis (Dm); [7]) [µg/mL]	IC90 [2, 8] [µg/mL]	IC90 [3, 9] [µg/mL]	IC90 [4, 10] [µg/mL]	IC90 (Rhizoctonia solani (Rs); [11]) [µg/mL]	IC90 (Septoria tritici (St); [12]) [µg/mL]	IC90 (Botrtyis cinerea (Bc); [13]) [µg/mL]	IC90 [1, 14] [µg/mL]	IC90 (Diplodia maydis (Dm); [15]) [µg/mL]	IC90 [2, 16] [µg/mL]	IC90 [3, 17] [µg/mL]	IC90 [4, 18] [µg/mL]	IC90 (Rhizoctonia solani (Rs); [19]) [µg/mL]	IC90 (Septoria tritici (St); [20]) [µg/mL]	Compound	also measured
0.4 (≈ 0.615 µM)	> 2	0.4 (≈ 0.615 µM)	0.08 (≈ 0.123 µM)	2 (≈ 3.07 µM)	> 10	0.4 (≈ 0.615 µM)	> 10									COc1ccccc1[C@H](Cn1c(=O)n(C(C)(C)C(=O)NC2CCCCC2)c(=O)c2c(C)c(-n3nccn3)sc21)OC1CCOCC1 [Compound I-043]	
								2 (≈ 3.54 µM)	2 (≈ 3.54 µM)	10 (≈ 17.7 µM)	0.4 (≈ 0.708 µM)	10 (≈ 17.7 µM)	50 (≈ 88.5 µM)	2 (≈ 3.54 µM)	> 50	COc1ccccc1[C@H](Cn1c(=O)n([C@H](C)C(=O)NC(C)C)c(=O)c2c(C)c(-n3cccn3)sc21)OCCC#N [Compound I-333]	
								2 (≈ 3.51 µM)	≥ 10	≥ 10	2 (≈ 3.51 µM)	≥ 10	> 50	2 (≈ 3.51 µM)	> 50	COc1ccc(F)cc1[C@H](Cn1c(=O)n([C@H](C)C(N)=O)c(=O)c2c(C)c(-n3nccn3)sc21)OCC(C)(C)C#N [Compound I-255]	
								0.4 (≈ 0.583 µM)	2 (≈ 2.91 µM)	2 (≈ 2.91 µM)	0.08 (≈ 0.117 µM)	0.4 (≈ 0.583 µM)	> 50	> 50	> 50	COc1ccc(Br)cc1[C@H](Cn1c(=O)n(C(C)(C)C(=O)NC(C)C)c(=O)c2c(C)c(-n3nccn3)sc21)OCC(C)(C)C#N [Compound I-270]	
0.4 (≈ 0.664 µM)	10 (≈ 16.6 µM)	2 (≈ 3.32 µM)	0.08 (≈ 0.133 µM)	10 (≈ 16.6 µM)	> 50	2 (≈ 3.32 µM)	> 50									COCCCO[C@@H](Cn1c(=O)n([C@@H](C)C(=O)NC(C)C)c(=O)c2c(C)c(-n3nccn3)sc21)c1cc(F)ccc1OC [Compound I-093]	
